The text below walks through data of patent EP1538159A1, “Substituted N-benzyl-lactam derivatives as melanocortin-4 receptor agonists” (Santhera Pharmaceuticals (Schweiz) GmbH, priority 2003, dated 2005).

Experiment [1] addresses T1, hMC-4R (Homo sapiens, UniProt P32245).
T1 construct: expressed in transfected cells; host or cells: HEK293
Nature of the experiment: Membrane binding assay (fluorescence polarization, fluorescence labeled NDP-alpha-MSH competition). Particulars: HEK293 cell membrane preparations. As for the experimental part:
(§1) A membrane binding assay is used to identify competitive inhibitors of fluorescence labeled NDP-alpha-MSH binding to HEK293 cell membrane preparations expressing human melanocortin receptors.
(§2) The test compound or unlabeled NDP-alpha-MSH is dispensed at varying concentrations to a 384 well microtiter plate. Fluorescence labeled NDP-alpha-MSH is dispensed at a single concentration, followed by addition of membrane preparations. The plate is incubated for 5 h at room temperature.
(§3) The degree of fluorescence polarization is determined with a fluorescence polarization microplate reader.
(Fluorescence polarisation rises when a labelled molecule tumbles more slowly, as on binding a larger partner.)

Experiment [2] addresses T1, hMC-4R. Nature of the experiment: Functional cellular cAMP assay (fluorescence polarization). Format: cell-based. Particulars: for pEC50: HEK293 cells, cAMP production; for % activation: cAMP production compared to stimulation with NDP-alpha-MSH; for fold improvement of functional activity: compared with WO030009850A1, Examples 1 and 34; for fold better functional activity: hMC4 EC50 compared with WO030009850A1, Example 166. The method, then: A functional cellular assay, based on competition between unlabeled cAMP and a fixed quantity of fluorescence labeled cAMP for a limited number of binding sites on a cAMP specific antibody, is used to discriminate melanocortin receptor agonists from antagonists by fluorescence polarization.
HEK293 cells expressing one of the human melanocortin receptors are transferred to 384 well microtiter plates, an appropriate amount of cAMP antibody is added, followed by the addition of different concentrations of the test compound to effect cAMP production. Cells are lysed and a fluorescence labeled cAMP conjugate is dispensed. The plate is read on a fluorescence polarization microplate reader and the amount of cAMP produced as a response to a test compound is compared to the production of cAMP resulting from stimulation with NDP-alpha-MSH.
To define antagonistic activity of a test compound, the compound is dispensed at different concentrations to cells stimulated by an appropriate amount of NDP-α-MSH. Inhibition of cAMP production is determined by comparing the inhibition of cAMP production of the test compound to the inhibition of cAMP production by a known inhibitor tested at the same concentrations.

In the next experiment the target is T2, hMC-5R (Homo sapiens, UniProt P33032).
T2 construct: expressed in transfected cells; host or cells: HEK293
T2 sequence (P33032 whole entry): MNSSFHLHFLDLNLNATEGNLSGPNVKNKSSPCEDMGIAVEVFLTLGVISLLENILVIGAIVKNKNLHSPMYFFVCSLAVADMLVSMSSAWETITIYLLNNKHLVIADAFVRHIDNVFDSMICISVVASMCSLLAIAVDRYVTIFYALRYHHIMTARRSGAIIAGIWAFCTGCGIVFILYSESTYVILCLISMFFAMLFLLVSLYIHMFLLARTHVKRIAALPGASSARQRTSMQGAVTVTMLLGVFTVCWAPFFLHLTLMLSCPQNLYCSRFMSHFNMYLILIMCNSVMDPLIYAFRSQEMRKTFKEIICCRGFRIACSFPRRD
The experiment in a line: Membrane binding assay (fluorescence polarization, fluorescence labeled NDP-alpha-MSH competition). The settings on record: HEK293 cell membrane preparations. As for the experimental part:
as §1, §2, §3

A further experiment has as its target T3, hMC-3R (Homo sapiens, UniProt P41968).
T3 construct: expressed in transfected cells; host or cells: HEK293
The experiment is described as above. The settings on record: HEK293 cell membrane preparations. The method, then: as §1, §2, §3

Each structure is given as a SMILES string. pEC50, pIC50: −log10 of the molar value. Some results are limits rather than exact numbers.

T1 sequence (P32245 whole entry): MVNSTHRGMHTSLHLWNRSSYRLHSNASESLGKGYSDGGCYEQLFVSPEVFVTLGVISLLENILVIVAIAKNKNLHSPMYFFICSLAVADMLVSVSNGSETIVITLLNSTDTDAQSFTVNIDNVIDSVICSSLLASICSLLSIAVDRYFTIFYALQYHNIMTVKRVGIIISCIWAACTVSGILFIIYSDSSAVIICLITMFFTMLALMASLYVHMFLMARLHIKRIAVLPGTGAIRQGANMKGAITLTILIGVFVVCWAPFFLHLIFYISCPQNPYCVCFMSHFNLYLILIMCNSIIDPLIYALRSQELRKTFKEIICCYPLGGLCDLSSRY
T3 sequence (P41968 whole entry): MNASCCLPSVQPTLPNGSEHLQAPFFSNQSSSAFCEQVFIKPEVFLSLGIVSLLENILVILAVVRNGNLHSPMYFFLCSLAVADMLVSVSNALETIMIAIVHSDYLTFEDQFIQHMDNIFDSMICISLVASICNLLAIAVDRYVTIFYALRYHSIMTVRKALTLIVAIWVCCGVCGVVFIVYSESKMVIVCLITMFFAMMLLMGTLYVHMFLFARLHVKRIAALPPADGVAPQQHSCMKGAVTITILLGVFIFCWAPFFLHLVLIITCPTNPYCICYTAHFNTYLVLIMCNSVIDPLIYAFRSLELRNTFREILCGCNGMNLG

For `NC1c2ccccc2CCC1C(=O)N[C@H](Cc1ccc(Cl)cc1)C(=O)N1CCC(c2ccccc2CN2CCCC2=O)CC1` (single isomer, unassigned) [Example 2A], the pIC50 – broadly, −log10 of the IC50, conventionally taken in molar units – on hMC-4R [1] is 7.77. For the same compound, on hMC-4R [2], the pEC50 (commonly the negative decadic logarithm of the EC50, by convention in mol/L) is 7.00 and the “% activation” value is listed as 86%.
As to `NC1c2ccccc2CCC1C(=O)N[C@H](Cc1ccc(Cl)cc1)C(=O)N1CCC(c2ccccc2CN2CCCC2=O)CC1` (single isomer, unassigned) [Example 2B], at hMC-4R [1], the pIC50 is 8.15. For the same compound, on hMC-4R [2], the pEC50 is 7.54 and the “% activation” value is reported as 90%.
`NC1c2ccccc2CCC1C(=O)N[C@H](Cc1ccc(Cl)cc1)C(=O)N1CCN(c2ccccc2CN2CCCC2=O)CC1` (single isomer, unassigned) [Example 4B]: the pIC50 at hMC-5R is 5.74. Besides, on hMC-4R [1], the pIC50 was 7.68. Besides, the “Binding Activity hMC-3R, % @10 uM” value at hMC-3R stood at 47%@10 uM. For the same compound, at hMC-4R [2], the pEC50 is 6.74, the “% activation” value is recorded as 91%, the “fold improvement of functional activity” value is on record as above 21 fold and the “fold better functional activity” value stood at 16 fold.
For `O=C(N[C@H](Cc1ccc(Cl)cc1)C(=O)N1CCC(c2ccccc2CN2CCCC2=O)CC1)[C@H]1Cc2ccccc2CN1` [Example 1], the pIC50 on hMC-5R was 6.09; on hMC-4R [1], 7.77; on hMC-3R it was 5.14. The same compound gave a pEC50 at hMC-4R [2] of 7.22. Further, the “% activation” value on hMC-4R [2] is reported as 112%.
On to `O=C(N[C@H](Cc1ccc(Cl)cc1)C(=O)N1CCN(c2ccccc2CN2CCCC2=O)CC1)[C@H]1Cc2ccccc2CN1` [Example 3], for which the pIC50 on hMC-5R was 5.89. At hMC-4R [1], this compound gave a negative logarithm of the IC50 (pIC50) of 7.54. Also, the “Binding Activity hMC-3R, % @10 uM” value on hMC-3R was determined as 41%@10 uM. In addition, at hMC-4R [2], the negative-log EC50 (pEC50) was 6.59, the “% activation” value turned out to be 109%, the “fold improvement of functional activity” value was “more than 14 fold” and the “fold better functional activity” value is given as 11 fold.
Consider `O=C(N[C@H](Cc1ccc(Cl)cc1)C(=O)N1CCC(c2ccccc2CN2CCCC2=O)CC1)C1CNC1` [WO030009847 Example 153, (R)-azetidine-3-carboxylic acid (1-(4-chloro-benzyl)-2-oxo-2-{4-[2-(2-oxo-pyrrolidin-1-ylmethyl)-phenyl]-piperidin-1-yl}-ethyl)-amide, reference compound], for which the figures for the pIC50 at hMC-5R, on hMC-4R [1] and at hMC-3R were 5.48, 7.40 and 5.28, respectively. The compound further showed a pEC50 at hMC-4R [2] of 5.99. The “% activation” value at hMC-4R [2] worked out at 107%.
In the case of `CS(=O)(=O)Nc1ccccc1N1CCN(C(=O)[C@@H](Cc2ccc(Cl)cc2)NC(=O)[C@H]2Cc3ccccc3CN2)CC1` [WO030009850 Example 1, (R,R)-1,2,3,4-tetrahydro-isoquinoline-3-carboxylic acid {1-(4-chloro-benzyl)-2-[4-(2-methanesulfonylamino-phenyl)-piperazin-1-yl]-2-oxo-ethyl}-amide, reference compound], the pIC50 at hMC-4R [1] is 6.30. Besides, on hMC-4R [2], the pEC50 was 5.43 and the “% activation” value was 96%.
Compound `CS(=O)(=O)Nc1ccccc1N1CCN(C(=O)[C@@H](Cc2ccc(Cl)cc2)NC(=O)C2CNC2)CC1` [WO030009850 Example 34, (R)-azetidine-3-carboxylic acid {1-(4-chloro-benzyl)-2-[4-(2-methanesulfonylamino-phenyl)-piperazin-1-yl]-2-oxo-ethyl}-amide, reference compound] gave a pIC50 at hMC-4R [1] of 5.54. On hMC-4R [2] (@10 µM), the “Functional Activity hMC-4R, % @10 µM” value is 11%@10 µM.
Regarding `O=C(N[C@H](Cc1ccc(Cl)cc1)C(=O)N1CCN(c2ccccc2CN2CCCC2=O)CC1)C1CNC1` [WO030009850 Example 166, (R)-azetidine-3-carboxylic acid (1-(4-chloro-benzyl)-2-oxo-2-{4-[2-(2-oxo-pyrrolidin-1-ylmethyl)-phenyl]-piperazin-1-yl}-ethyl)-amide, reference compound], the pIC50 is 5.16 on hMC-5R, 6.96 on hMC-4R [1] and 4.72 on hMC-3R. On hMC-4R [2], this compound had a negative-log EC50 (pEC50) of 5.55. In addition, on hMC-4R [2], the “% activation” value is recorded as 90%.
